Source: ChEMBL document CHEMBL5729430, “ACLY inhibitors and uses thereof” (2022)

Molecular target: T1, ATP-citrate synthase (Homo sapiens, UniProt P53396)
T1 sequence (P53396 whole entry): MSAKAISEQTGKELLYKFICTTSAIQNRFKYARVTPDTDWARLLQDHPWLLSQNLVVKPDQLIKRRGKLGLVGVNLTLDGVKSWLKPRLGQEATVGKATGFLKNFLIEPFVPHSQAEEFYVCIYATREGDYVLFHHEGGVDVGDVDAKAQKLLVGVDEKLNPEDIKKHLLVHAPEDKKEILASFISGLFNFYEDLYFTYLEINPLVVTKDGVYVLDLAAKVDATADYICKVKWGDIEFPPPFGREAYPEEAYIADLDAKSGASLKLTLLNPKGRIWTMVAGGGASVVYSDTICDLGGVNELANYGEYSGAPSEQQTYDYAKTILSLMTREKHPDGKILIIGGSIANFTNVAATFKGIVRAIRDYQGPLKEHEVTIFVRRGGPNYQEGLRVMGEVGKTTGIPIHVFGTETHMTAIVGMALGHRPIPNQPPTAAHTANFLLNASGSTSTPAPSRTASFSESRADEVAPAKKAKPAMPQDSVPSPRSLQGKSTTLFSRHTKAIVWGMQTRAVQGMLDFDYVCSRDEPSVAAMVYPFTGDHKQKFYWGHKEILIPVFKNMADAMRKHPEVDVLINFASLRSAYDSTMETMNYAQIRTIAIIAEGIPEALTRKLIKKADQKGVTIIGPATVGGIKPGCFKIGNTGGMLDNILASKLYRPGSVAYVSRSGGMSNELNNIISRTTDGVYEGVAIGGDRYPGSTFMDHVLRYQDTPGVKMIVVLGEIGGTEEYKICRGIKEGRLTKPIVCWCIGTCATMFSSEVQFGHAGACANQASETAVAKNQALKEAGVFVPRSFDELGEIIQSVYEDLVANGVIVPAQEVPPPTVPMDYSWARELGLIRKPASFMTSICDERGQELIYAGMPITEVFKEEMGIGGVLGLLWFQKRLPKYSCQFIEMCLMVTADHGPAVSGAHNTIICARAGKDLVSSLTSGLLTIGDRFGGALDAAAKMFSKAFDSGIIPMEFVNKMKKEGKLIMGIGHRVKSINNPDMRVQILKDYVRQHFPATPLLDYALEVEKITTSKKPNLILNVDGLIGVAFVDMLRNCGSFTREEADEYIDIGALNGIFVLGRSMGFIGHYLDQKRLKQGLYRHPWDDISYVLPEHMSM
Test: ADP-Glo Assay: Compounds of the present invention were evaluated in an ADP-GLO assay as follows:a) Dilute cpd 1:3 in succession in DMSO by hand for each cpds for 12 ptsb) Add 0.1 μL diluted cpd solution to assay plate, each dose with 2 replicatesc) Centrifuge 1000 RPM for 1 mind) Add 5 μL ACL working solution to 384-well assay plate, centrifuge 1000 RPM for 1 mine) Incubate at 25° C. for 15 minf) Add 5 μL substrate working solution to initiate reactiong) Final ACL reaction concentrations: 3 nM ACL, 15 μM ATP, 3 μM CoA, 300 μM Citrate, 0.01% Brij35, 4 mM DTT, 1% DMSO;h) Reference final conc: 30 uM starting Conc, 3× dilution, 11+0 points. Test cpd conc: 30/100 uM starting Conc, 3× dilution, 11+0 points.i) Incubate at 25° C. for 60 minj) Add 10 μL ADP Glo reagent, centrifuge 1000 RPM for 1 mink) Incubate at 25° C. for 40 minl) Add 20 μL kinase detection reagent, centrifuge 1000 RPM for 1 minm) Incubate at 25° C. for 40 minn) Read on Envision for US LUM as RLU.

IC50 [µM]	SMILES
> 20	O=S(=O)(c1cc(Cl)cc(Cl)c1)n1c(-c2cncnc2)cc2cc(Cl)ccc21
< 0.5	O=C(O)c1cc2cc(Cl)ccc2n1S(=O)(=O)c1cc(Cl)cc(Cl)c1
